{"source": "patent US20230320956A1", "about": "“DIARYLALKANE COMPOUNDS AND COMPOSITIONS FOR USE WITH SKIN AGING AND METHODS OF PRODUCTION THEREOF” (Unigen, Inc., priority 2022, published 2023)", "key": {"[1]": {"test_system": "skin brightness/luminance, Asian subjects", "assay": "Self-assessment of skin brightness/luminance, Asian subjects", "format": "in vivo, human", "conditions": "Week 8", "procedure": "Included subjects were: • 1. Female subjects between the ages of 35-66 (inclusive) in general good health • 2. Asian subjects who had skin brightness/luminance score of “5” (moderately dull/sallow appearance) or greater on the face (for qualification only) as assessed by a trained technician and whose brightness/luminance were evaluated according to the following scale: 0—No dullness/sallowness visible, 1-3—Slightly dull/sallow appearance, 4-6—Moderately dull/sallow appearance, 7-9—Severely dull/sallow appearance. • 3. […] Individuals who could read, understand, and sign the Informed Consent form. • 5. […] At all visits, a trained technician evaluated the face of each subject for irritation. […] Results: Skin brightness/luminance (Asian subjects): In order to determine any changes in skin brightness/luminance, skin brightness (luminosity) was analyzed by Visia CR®. Facial luminance was a single number calculated based on the uniformity of the lightening of the image. […] There were no significant changes to brightness/luminance as assessed by the Visia CR® analysis at any of the clinic visits, although the Mean Score for skin brightness/luminance trended toward an increase at 4 and 8 weeks after starting dimethoxytolyl propylresorcinol use compared to Baseline (Table 24), indicating an improvement in skin brightness/luminance."}, "[2]": {"test_system": "skin blotchiness/age spots, Caucasian subjects", "assay": "Self-assessment of skin blotchiness/age spots, Caucasian subjects", "format": "in vivo, human", "conditions": "Week 8", "procedure": "Skin Blotchiness/Age Spots (Caucasian subjects): In order to determine any changes in skin blotchiness/age spots, chroma was analyzed by Visia CR®. The degree to which a color is free from being mixed with other colors is a good indication of its chromacity. An increase in the chroma score represented an improvement in skin blotchiness/age spots. A decrease represented a worsening. At each visit, Caucasian subjects rated their skin blotchiness/age spots according to the following scale: 0—No skin blotchiness or age spots visible, 1-3—Slight areas of skin blotchiness or age spots visible, 4-6—Moderate areas of skin blotchiness or age spots visible, 7-9—Severe areas of skin blotchiness or age spots visible. Additionally, at the final visit, subjects completed a questionnaire. There were no significant changes to skin blotchiness/age spots as assessed by the Visia CR® analysis at any of the clinic visits, although the Mean Score for skin blotchiness/age spots trended toward an increase at all 2, 4, and 8 weeks after starting dimethoxytolyl propylresorcinol use compared to Baseline, indicating an improvement in skin blotchiness/age spots (Table 27)."}}, "data": [{"smiles": "COc1ccc(CCCc2ccc(O)cc2O)c(OC)c1C", "note": "[dimethoxytolyl propylresorcinol, 1-(3-methyl-2,4-dimethoxyphenyl)-3-(2′,4′-dihydroxyphenyl)-propane]", "values": [{"measurement": "Self-Assessment Skin Brightness/Luminance % Improvement from Baseline", "setting": "[1]", "value": 13, "unit": "%"}, {"measurement": "Self-Assessment Skin Blotchiness/Age Spots % Improvement from Baseline", "setting": "[2]", "value": 37, "unit": "%"}]}]}
